In patent US10882871B2, “18/19F-labelled compounds which target the prostate specific membrane antigen” (BRITISH COLUMBIA CANCER AGENCY BRANCH, priority 2016, dated 2021):

Tested on: PSMA-expressing LNCAP cancer xenografts
Assay: Biodistribution and tumor-to-background contrast ratios of 18F-labeled tracers
Assay type: in vivo, mouse (NODSCID 1L2RγKO male mice)
Protocol: LNCap cell line was obtained from ATCC (LNCaP clone FGC, CRL-1740). It was established from a metastatic site of left supraclavicular lymph node of human prostatic adenocarcinoma. Cells were cultured in PRMI 1640 medium supplemented with 10% FBS, penicillin (100 U/mL) and streptomycin (100 μg/mL) at 37° C. in a humidified incubator containing 5% CO2. Cells grown to 80-90% confluence were then washed with sterile phosphate-buffered saline (1×PBS pH 7.4) and trypsinization. The collected cells number was counted with a Hausser Scientific (Horsham, Pa.) Hemacytometer.
Imaging and biodistribution experiments were performed using NODSCID 1L2RγKO male mice. Mice were anesthetized by inhalation with 2% isoflurane in oxygen, and implanted subcutaneously with 1×10^7 LNCaP cells behind left shoulder. Mice were imaged or used in biodistribution studies when the tumor grew up to reach 5-8 mm in diameter during 5-6 weeks.
PET imaging experiments were conducted using Siemens Inveon micro PET/CT scanner. Each tumor bearing mouse was injected 6-8 MBq of F-18 labeled tracer through the tail vein under anesthesia (2% isoflurane in oxygen). The mice were allowed to recover and roam freely in their cage. After 50 min, the mice were sedated again with 2% isoflurane in oxygen inhalation and positioned in the scanner. A 10-min CT scan was conducted first for localization and attenuation correction after segmentation for reconstructing the PET images. Then, a 10-min static PET imaging was performed to determined uptake in tumor and other organs. The mice were kept warm by a heating pad during acquisition. For imaging studies acquired at 2 h post-injection (p.i.), the mice were placed in the micro PET/CT scanner at 110 min p.i. Then, the CT and PET acquisitions were conducted as described above.
For biodistribution studies, the mice were injected with the radiotracer as described above. At predetermined time points (1 or 2 h), the mice was anesthetized with 2% isoflurane inhalation, and euthanized by CO2 inhalation. Blood was withdrawn immediately from the heart, and the organs/tissues of interest were collected. The collected organs/tissues were weighed and counted using an automatic gamma counter. The uptake in each organ/tissue was normalized to the injected dose using a standard curve, and expressed as the percentage of the injected dose per gram of tissue (% ID/g).

| Biodistribution Adrenal glands (1 h) | Biodistribution Blood (1 h) | Biodistribution Bone (1 h) | Biodistribution Brain (1 h) | Biodistribution Fat (1 h) | Biodistribution Heart (1 h) | Biodistribution Intestine (1 h) | Biodistribution Kidneys (1 h) | Biodistribution Liver (1 h) | Biodistribution Lungs (1 h) | Biodistribution Muscle (1 h) | Biodistribution Pancreas (1 h) | Biodistribution Spleen (1 h) | Biodistribution Stomach (1 h) | Biodistribution Testes (1 h) | Biodistribution Tumor (1 h) | Tumor:Blood contrast ratio (1 h) | Tumor:Muscle contrast ratio (1 h) | Tumor:kidney contrast ratio (1 h) | Biodistribution Adrenal glands (2 h) | SMILES | also measured |
| --- | --- | --- | --- | --- | --- | --- | --- | --- | --- | --- | --- | --- | --- | --- | --- | --- | --- | --- | --- | --- | --- |
| 4.77 ± 1.75 % ID/g | 0.57 ± 0.15 % ID/g | 0.36 ± 0.02 % ID/g | 0.04 ± 0.01 % ID/g | 0.99 ± 0.39 % ID/g | 0.30 ± 0.06 % ID/g | 0.54 ± 0.11 % ID/g | 114 ± 41.3 % ID/g | 2.90 ± 0.56 % ID/g | 1.37 ± 0.36 % ID/g | 0.26 ± 0.08 % ID/g | 0.55 ± 0.16 % ID/g | 2.67 ± 0.98 % ID/g | 0.12 ± 0.05 % ID/g | 0.62 ± 0.15 % ID/g | 6.04 ± 1.24 % ID/g | 10.8 ± 1.64 | 23.4 ± 3.71 | 0.07 ± 0.06 | 3.66 ± 2.01 % ID/g | C[N+](C)(Cc1ccc(C(=O)NCCCC[C@H](NC(=O)N[C@@H](CCC(=O)O)C(=O)O)C(=O)O)cc1)C[B-](F)(F)[18F] [F-18 HTK-01069] | Biodistribution Blood (2 h): 0.24 ± 0.10 % ID/g; Biodistribution Bone (2 h): 0.30 ± 0.10 % ID/g; Biodistribution Brain (2 h): 0.04 ± 0.01 % ID/g; Biodistribution Fat (2 h): 0.86 ± 0.53 % ID/g; Biodistribution Heart (2 h): 0.20 ± 0.08 % ID/g; Biodistribution Intestine (2 h): 0.72 ± 0.15 % ID/g; Biodistribution Kidneys (2 h): 103 ± 56.7 % ID/g; Biodistribution Liver (2 h): 2.75 ± 0.56 % ID/g; Biodistribution Lungs (2 h): 0.99 ± 0.32 % ID/g; Biodistribution Muscle (2 h): 0.15 ± 0.04 % ID/g; Biodistribution Pancreas (2 h): 0.41 ± 0.20 % ID/g; Biodistribution Spleen (2 h): 1.93 ± 0.85 % ID/g; Biodistribution Stomach (2 h): 0.09 ± 0.03 % ID/g; Biodistribution Testes (2 h): 0.40 ± 0.06 % ID/g; Biodistribution Tumor (2 h): 5.47 ± 0.75 % ID/g; Tumor:Blood contrast ratio (2 h): 26.9 ± 13.3; Tumor:Muscle contrast ratio (2 h): 37.4 ± 8.86; Tumor:kidney contrast ratio (2 h): 0.07 ± 0.03 |
| 4.65 ± 1.75 % ID/g | 0.52 ± 0.06 % ID/g | 0.44 ± 0.09 % ID/g | 0.04 ± 0.01 % ID/g | 0.73 ± 0.26 % ID/g | 0.33 ± 0.08 % ID/g | 0.33 ± 0.05 % ID/g | 71.7 ± 18.0 % ID/g | 1.69 ± 0.19 % ID/g | 1.39 ± 0.17 % ID/g | 0.23 ± 0.04 % ID/g | 0.33 ± 0.05 % ID/g | 5.01 ± 0.64 % ID/g | 0.10 ± 0.03 % ID/g | 0.67 ± 0.17 % ID/g | 8.28 ± 1.25 % ID/g | 16.0 ± 1.37 | 37.3 ± 9.53 | 0.12 ± 0.04 | 2.11 ± 0.78 % ID/g | C[N+](C)(Cc1cn(Cc2ccc(C(=O)NCCCC[C@H](NC(=O)N[C@@H](CCC(=O)O)C(=O)O)C(=O)O)cc2)nn1)C[B-](F)(F)[18F] [F-18 HTK-01070] | Biodistribution Blood (2 h): 0.23 ± 0.11 % ID/g; Biodistribution Bone (2 h): 0.30 ± 0.06 % ID/g; Biodistribution Brain (2 h): 0.03 ± 0.01 % ID/g; Biodistribution Fat (2 h): 0.62 ± 0.34 % ID/g; Biodistribution Heart (2 h): 0.13 ± 0.06 % ID/g; Biodistribution Intestine (2 h): 0.29 ± 0.08 % ID/g; Biodistribution Kidneys (2 h): 68.5 ± 28.7 % ID/g; Biodistribution Liver (2 h): 1.50 ± 0.30 % ID/g; Biodistribution Lungs (2 h): 0.69 ± 0.23 % ID/g; Biodistribution Muscle (2 h): 0.12 ± 0.03 % ID/g; Biodistribution Pancreas (2 h): 0.21 ± 0.07 % ID/g; Biodistribution Spleen (2 h): 1.30 ± 0.48 % ID/g; Biodistribution Stomach (2 h): 0.06 ± 0.02 % ID/g; Biodistribution Testes (2 h): 0.36 ± 0.21 % ID/g; Biodistribution Tumor (2 h): 7.56 ± 1.57 % ID/g; Tumor:Blood contrast ratio (2 h): 38.9 ± 18.8; Tumor:Muscle contrast ratio (2 h): 67.7 ± 14.8; Tumor:kidney contrast ratio (2 h): 0.14 ± 0.10 |
